Measured values: US20240158391A1, “DERIVATIVES OF 4-(IMIDAZO[1,2-A]PYRIDIN-3-YL)-N-(PYRIDIN-3-YL) PYRIMIDIN-2- AMINE FOR TREATING PROLIFERATIVE DISEASES AND CONDITIONS” (AUCENTRA THERAPEUTICS PTY LTD, priority 2019, published 2024)

Columns and labels:
[1] = test system: MV-4-11; experiment: Proliferation assay (resazurin, leukemia cell lines), MV-4-11; type: cell-based; details: Homo sapiens, MV4-11, read-out: 72 h Growth inhibition GI50, MV-4-11 cells
Text: The following compounds were used as comparators.

[2] = target: CDK9/CyclinT1 (Homo sapiens, UniProt P50750); experiment: ADP Glo kinase assay, CDK9/CyclinT1; type: biochemical; details: for Ki: CDK9/CyclinT1, Km ATP, read-out: Enzymatic inhibition, Ki, CDK9 T1; for inhibition of CDK9 (in words): compared with comparator compounds A, B and C (N-(pyridin-2-yl)pyrimidin-2-amine moiety)
CDK9/CyclinT1, sequence (P50750 whole entry, species assumed): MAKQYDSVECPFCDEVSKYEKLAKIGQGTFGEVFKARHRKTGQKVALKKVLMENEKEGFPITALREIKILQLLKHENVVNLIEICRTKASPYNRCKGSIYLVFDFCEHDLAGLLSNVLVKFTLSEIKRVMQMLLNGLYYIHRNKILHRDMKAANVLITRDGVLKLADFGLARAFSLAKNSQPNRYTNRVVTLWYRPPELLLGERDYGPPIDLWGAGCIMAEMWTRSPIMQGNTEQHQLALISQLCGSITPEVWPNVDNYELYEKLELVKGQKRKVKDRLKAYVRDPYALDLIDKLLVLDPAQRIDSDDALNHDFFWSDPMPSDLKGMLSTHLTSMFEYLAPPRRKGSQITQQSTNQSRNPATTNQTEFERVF
CDK9/CyclinT1, sequence (O60563 whole entry partner, species assumed): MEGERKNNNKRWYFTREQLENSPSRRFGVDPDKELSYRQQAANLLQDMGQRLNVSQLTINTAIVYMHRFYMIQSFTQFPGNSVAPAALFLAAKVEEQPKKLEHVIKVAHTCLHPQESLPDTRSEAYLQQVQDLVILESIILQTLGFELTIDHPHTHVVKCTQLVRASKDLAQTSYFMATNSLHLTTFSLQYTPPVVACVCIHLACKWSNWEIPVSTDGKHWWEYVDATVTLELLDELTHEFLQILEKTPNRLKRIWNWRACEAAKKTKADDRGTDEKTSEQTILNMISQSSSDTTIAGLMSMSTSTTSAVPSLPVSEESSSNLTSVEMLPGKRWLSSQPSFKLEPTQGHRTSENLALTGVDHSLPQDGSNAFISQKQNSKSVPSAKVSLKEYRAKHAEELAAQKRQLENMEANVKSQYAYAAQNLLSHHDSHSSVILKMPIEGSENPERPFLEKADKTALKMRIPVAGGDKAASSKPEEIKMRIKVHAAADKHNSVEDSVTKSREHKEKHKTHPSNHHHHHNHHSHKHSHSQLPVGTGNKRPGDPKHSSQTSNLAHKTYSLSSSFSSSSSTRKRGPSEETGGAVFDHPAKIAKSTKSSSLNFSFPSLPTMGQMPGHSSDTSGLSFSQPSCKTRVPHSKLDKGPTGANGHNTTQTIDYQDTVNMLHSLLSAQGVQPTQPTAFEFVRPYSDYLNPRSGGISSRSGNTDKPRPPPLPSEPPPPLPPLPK
Protocol: (§1) Test compounds are used in 1:3 serial dilutions for 10 concentrations (from 10-0.0005 μM) in 0.5% DMSO. […] The kinase reactions are run for optimised time period at room temperature and then the reaction is stopped by adding 5 μL of ADP Glo reagent.

[3] = target: T1, FLT3-ITD (Homo sapiens, UniProt P36888); experiment: ADP Glo kinase assay, FLT3-ITD; type: biochemical; details: for Ki: Km ATP 100 μM, read-out: Enzymatic inhibition, Ki, FLT3-ITD
T1 sequence (P36888 1-993): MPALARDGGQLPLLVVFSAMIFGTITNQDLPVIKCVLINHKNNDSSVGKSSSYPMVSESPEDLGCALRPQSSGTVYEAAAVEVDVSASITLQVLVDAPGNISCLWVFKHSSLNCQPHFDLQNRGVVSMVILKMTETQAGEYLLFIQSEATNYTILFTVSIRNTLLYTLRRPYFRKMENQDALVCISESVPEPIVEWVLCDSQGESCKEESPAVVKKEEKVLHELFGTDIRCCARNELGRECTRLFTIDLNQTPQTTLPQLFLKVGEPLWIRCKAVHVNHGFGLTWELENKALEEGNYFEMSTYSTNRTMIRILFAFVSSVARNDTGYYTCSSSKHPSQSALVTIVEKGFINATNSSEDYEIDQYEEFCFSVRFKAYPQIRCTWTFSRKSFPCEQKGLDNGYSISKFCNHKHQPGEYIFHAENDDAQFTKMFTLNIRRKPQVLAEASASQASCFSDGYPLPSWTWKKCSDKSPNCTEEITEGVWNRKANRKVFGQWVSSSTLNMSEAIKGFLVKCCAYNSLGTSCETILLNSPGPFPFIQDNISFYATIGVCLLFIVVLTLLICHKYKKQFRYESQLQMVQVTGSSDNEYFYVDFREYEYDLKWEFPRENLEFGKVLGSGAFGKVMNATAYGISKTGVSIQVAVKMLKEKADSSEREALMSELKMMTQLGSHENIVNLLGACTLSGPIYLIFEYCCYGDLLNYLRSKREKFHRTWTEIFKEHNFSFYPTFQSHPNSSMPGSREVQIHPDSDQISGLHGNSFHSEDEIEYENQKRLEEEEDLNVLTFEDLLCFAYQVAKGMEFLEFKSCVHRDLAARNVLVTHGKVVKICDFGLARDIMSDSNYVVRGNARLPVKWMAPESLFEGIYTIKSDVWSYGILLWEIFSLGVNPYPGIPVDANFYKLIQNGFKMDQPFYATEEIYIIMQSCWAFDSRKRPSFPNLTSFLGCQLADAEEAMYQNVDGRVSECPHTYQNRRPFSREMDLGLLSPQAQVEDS
Protocol: as §1

[4] = target: CDK6/CyclinD3 (Homo sapiens, UniProt Q00534); experiment: ADP Glo kinase assay, CDK6/CyclinD3; type: biochemical; details: for Ki: Km ATP, read-out: Enzymatic inhibition, Ki, CDK6 D3; for remaining activity at 1 µM: compound at 1 μM, read-out: Residual enzymatic activity (%) at 1 μM, CDK6 D3
CDK6/CyclinD3, sequence (Q00534 whole entry, species assumed): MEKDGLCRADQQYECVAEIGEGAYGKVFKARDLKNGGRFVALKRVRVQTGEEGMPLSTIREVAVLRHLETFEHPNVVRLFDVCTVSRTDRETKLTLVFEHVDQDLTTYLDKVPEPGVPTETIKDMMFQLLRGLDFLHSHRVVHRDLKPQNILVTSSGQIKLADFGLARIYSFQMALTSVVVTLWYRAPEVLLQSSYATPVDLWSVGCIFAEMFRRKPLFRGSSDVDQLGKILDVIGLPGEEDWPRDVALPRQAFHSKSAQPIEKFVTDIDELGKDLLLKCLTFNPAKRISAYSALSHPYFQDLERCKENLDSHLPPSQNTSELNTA
CDK6/CyclinD3, sequence (P30281 whole entry partner, species assumed): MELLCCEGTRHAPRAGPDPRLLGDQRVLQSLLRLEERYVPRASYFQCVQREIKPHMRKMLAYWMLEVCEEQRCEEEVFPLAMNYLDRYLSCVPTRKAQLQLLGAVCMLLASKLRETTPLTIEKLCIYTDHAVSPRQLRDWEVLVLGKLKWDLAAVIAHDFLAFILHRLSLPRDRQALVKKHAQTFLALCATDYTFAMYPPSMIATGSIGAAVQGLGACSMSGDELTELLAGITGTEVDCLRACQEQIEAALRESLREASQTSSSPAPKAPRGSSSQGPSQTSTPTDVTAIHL
Protocol: as §1

[5] = target: CDK2/CyclinA2 (Homo sapiens, UniProt P24941); experiment: ADP Glo kinase assay, CDK2/CyclinA2; type: biochemical; details: for Ki: Km ATP, read-out: Enzymatic inhibition, Ki, CDK2 A; for remaining activity at 1 µM: compound at 1 μM, read-out: Residual enzymatic activity (%) at 1 μM, CDK2 A
Protocol: as §1

[6] = target: CDK1/CyclinB (Homo sapiens, UniProt P06493); experiment: ADP Glo kinase assay, CDK1/CyclinB; type: biochemical; details: for Ki: Km ATP, read-out: Enzymatic inhibition, Ki, CDK1 B; for remaining activity at 1 µM: compound at 1 μM, read-out: Residual enzymatic activity (%) at 1 μM, CDK1 B
CDK1/CyclinB, sequence (P06493 whole entry, species assumed): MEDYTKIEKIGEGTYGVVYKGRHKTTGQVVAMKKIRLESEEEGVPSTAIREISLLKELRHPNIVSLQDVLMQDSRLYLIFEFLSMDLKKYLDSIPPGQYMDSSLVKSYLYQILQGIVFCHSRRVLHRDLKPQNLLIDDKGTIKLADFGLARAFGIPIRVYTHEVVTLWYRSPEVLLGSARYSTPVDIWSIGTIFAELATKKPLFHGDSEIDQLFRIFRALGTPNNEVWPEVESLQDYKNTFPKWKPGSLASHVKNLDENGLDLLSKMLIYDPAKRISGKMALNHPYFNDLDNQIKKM
CDK1/CyclinB, sequence (P14635 whole entry partner, species assumed): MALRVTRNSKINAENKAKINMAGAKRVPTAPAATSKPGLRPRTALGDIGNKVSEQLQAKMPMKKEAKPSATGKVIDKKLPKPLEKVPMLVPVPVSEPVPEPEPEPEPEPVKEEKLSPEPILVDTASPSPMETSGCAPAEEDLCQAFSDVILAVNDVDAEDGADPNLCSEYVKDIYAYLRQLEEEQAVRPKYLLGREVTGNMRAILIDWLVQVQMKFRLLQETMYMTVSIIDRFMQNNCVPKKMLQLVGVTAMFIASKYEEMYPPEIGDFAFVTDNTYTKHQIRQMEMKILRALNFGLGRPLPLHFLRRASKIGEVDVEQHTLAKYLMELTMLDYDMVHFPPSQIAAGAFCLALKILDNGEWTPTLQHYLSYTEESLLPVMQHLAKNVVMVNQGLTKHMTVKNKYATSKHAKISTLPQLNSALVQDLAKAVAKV
Protocol: as §1

[7] = target: CDK4/CyclinD1 (Homo sapiens, UniProt P11802); experiment: ADP Glo kinase assay, CDK4/CyclinD1; type: biochemical; details: for Ki: Km ATP, read-out: Enzymatic inhibition, Ki, CDK4 D1; for remaining activity at 1 µM: compound at 1 μM, read-out: Residual enzymatic activity (%) at 1 μM, CDK4 D1
CDK4/CyclinD1, sequence (P11802 whole entry, species assumed): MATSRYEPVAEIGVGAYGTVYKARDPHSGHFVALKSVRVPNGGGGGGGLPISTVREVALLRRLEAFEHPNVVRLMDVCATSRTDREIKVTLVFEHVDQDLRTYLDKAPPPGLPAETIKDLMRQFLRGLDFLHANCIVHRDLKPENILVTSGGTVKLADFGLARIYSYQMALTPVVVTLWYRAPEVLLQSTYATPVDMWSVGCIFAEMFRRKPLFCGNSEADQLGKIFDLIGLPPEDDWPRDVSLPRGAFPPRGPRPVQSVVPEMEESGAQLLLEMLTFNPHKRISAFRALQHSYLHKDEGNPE
CDK4/CyclinD1, sequence (P24385 whole entry partner, species assumed): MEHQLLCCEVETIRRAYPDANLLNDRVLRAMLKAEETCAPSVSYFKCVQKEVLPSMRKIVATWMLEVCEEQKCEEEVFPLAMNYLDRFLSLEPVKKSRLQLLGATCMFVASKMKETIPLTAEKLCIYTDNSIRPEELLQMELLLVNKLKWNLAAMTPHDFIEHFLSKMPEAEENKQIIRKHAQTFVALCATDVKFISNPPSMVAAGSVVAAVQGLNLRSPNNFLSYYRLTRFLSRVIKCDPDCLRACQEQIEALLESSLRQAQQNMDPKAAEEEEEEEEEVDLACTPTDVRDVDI
Protocol: as §1

[8] = target: CDK7/CyclinH/Mat1 (Homo sapiens, UniProt P50613); experiment: ADP Glo kinase assay, CDK7/CyclinH/Mat1; type: biochemical; details: for Ki: Km ATP, read-out: Enzymatic inhibition, Ki, CDK7 H; for remaining activity at 1 µM: compound at 1 μM, read-out: Residual enzymatic activity (%) at 1 μM, CDK7 H
CDK7/CyclinH/Mat1, sequence (P50613 whole entry, species assumed): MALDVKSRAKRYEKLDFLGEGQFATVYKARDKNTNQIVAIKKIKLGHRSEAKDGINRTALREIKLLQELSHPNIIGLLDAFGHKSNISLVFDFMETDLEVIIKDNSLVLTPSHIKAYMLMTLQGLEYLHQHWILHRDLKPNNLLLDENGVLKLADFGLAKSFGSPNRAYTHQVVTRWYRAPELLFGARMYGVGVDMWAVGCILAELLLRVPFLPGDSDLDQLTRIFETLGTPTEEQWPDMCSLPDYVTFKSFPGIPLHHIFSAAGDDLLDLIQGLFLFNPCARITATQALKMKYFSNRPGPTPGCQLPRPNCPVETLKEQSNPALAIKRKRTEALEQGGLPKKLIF
CDK7/CyclinH/Mat1, sequence (P51946 whole entry partner, species assumed): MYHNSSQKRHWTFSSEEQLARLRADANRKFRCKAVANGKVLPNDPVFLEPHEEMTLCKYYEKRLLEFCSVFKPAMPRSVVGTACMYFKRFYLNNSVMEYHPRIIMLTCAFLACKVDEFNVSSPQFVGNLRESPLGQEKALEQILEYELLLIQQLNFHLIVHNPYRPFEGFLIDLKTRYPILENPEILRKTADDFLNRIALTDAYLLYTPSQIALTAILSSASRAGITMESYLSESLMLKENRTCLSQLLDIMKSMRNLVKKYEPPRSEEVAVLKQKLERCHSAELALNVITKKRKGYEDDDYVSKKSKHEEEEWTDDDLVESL
CDK7/CyclinH/Mat1, sequence (P51948 whole entry partner, species assumed): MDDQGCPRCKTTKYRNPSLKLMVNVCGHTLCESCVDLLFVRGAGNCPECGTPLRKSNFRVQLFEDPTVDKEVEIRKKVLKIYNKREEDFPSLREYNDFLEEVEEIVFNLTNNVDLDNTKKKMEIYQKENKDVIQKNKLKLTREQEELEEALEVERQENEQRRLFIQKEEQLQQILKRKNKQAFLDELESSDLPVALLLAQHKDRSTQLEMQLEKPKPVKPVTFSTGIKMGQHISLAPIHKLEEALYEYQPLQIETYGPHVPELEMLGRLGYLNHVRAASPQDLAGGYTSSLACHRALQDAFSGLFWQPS
Protocol: as §1

CN1CCN(c2ccc(Nc3nccc(-c4cnc5ccc(-c6ccccc6)cn45)n3)cn2)CC1 [Compound 6, N-(6-(4-Methylpiperazin-1-yl)pyridin-3-yl)-4-(6-phenylimidazo[1,2-a]pyridin-3-yl)pyrimidin-2-amine]
GI50 [1]: 4 nM
Ki [2]: < 0.1 nM
inhibition of CDK9 (in words) [2]: dramatically and surprisingly increased the potency of inhibition of CDK9
Ki [3]: 4 nM
Ki [4]: > 5000 nM
Ki [5]: 177 nM
Ki [6]: 265 nM
Ki [7]: 229 nM
Ki [8]: 238 nM

CN(C)C1CCN(Cc2ccc(Nc3nccc(-c4cnc5ccc(Br)cn45)n3)cn2)CC1 [Compound 81, 4-(6-Bromoimidazo[1,2-a]pyridin-3-yl)-N-(6-((4-(dimethylamino)piperidin-1-yl)methyl)pyridin-3-yl)pyrimidin-2-amine]
GI50 [1]: 98 nM
Ki [2]: 143 nM
Ki [3]: 70 nM
remaining activity at 1 µM [4]: 22%
Ki [5]: 41 nM
remaining activity at 1 µM [6]: 84%
remaining activity at 1 µM [7]: 47%
Ki [8]: 205 nM

c1ccc(-c2ccc3ncc(-c4ccnc(Nc5ccc(N6CCCC6)nc5)n4)n3c2)cc1 [Compound 27, 4-(6-Phenylimidazo[1,2-a]pyridin-3-yl)-N-(6-(pyrrolidin-1-yl)pyridin-3-yl)pyrimidin-2-amine]
GI50 [1]: 196 nM
Ki [2]: > 5000 nM
Ki [3]: 109 nM
remaining activity at 1 µM [4]: 61%
remaining activity at 1 µM [5]: 37%
remaining activity at 1 µM [6]: 84%
remaining activity at 1 µM [7]: 97%
Ki [8]: > 5000 nM

COc1ccc(-c2ccc3ncc(-c4ccnc(Nc5ccc(N6CCN(C)CC6)nc5)n4)n3c2)cn1 [Compound 43, 4-(6-(6-Methoxypyridin-3-yl)imidazo[1,2-a]pyridin-3-yl)-N-(6-(4-methylpiperazin-1-yl)pyridin-3-yl)pyrimidin-2-amine]
GI50 [1]: 40 nM
Ki [2]: 66 nM
Ki [3]: 24 nM
remaining activity at 1 µM [4]: 46%
remaining activity at 1 µM [5]: 46%
remaining activity at 1 µM [6]: 67%
remaining activity at 1 µM [7]: 68%
remaining activity at 1 µM [8]: 41%

Cc1cnc(Nc2ccc(N3CCN(C)CC3)nc2)nc1-c1cnc2ccc(-c3ccccc3)cn12 [Compound 50, 5-Methyl-N-(6-(4-methylpiperazin-1-yl)pyridin-3-yl)-4-(6-phenylimidazo[1,2-a]pyridin-3-yl)pyrimidin-2-amine]
GI50 [1]: 813 nM
Ki [2]: 410 nM
Ki [3]: 210 nM
remaining activity at 1 µM [4]: 79%
remaining activity at 1 µM [5]: 90%
remaining activity at 1 µM [6]: 91%
remaining activity at 1 µM [7]: 94%
remaining activity at 1 µM [8]: 51%

COC(=O)c1ccc(Nc2nccc(-c3cnc4ccc(Br)cn34)n2)cn1 [Compound 82, Methyl 5-((4-(6-bromoimidazo[1,2-a]pyridin-3-yl)pyrimidin-2-yl)amino)picolinate]
GI50 [1]: 262 nM
Ki [2]: 163 nM
Ki [3]: 180 nM
remaining activity at 1 µM [4]: 99%
Ki [5]: 52 nM
remaining activity at 1 µM [6]: 90%
remaining activity at 1 µM [7]: 94%
remaining activity at 1 µM [8]: 93%

CCOc1ccc(Nc2ncc(F)c(-c3cnc4ccc(-c5ccccc5)cn34)n2)cn1 [Compound 31, N-(6-Ethoxypyridin-3-yl)-5-fluoro-4-(6-phenylimidazo[1,2-a]pyridin-3-yl)pyrimidin-2-amine]
GI50 [1]: 600 nM
Ki [2]: > 1000 nM
Residual enzymatic activity (%) at 1 μM, FLT3-ITD ([3]; compound at 1 μM): 70%
remaining activity at 1 µM [4]: 41%
remaining activity at 1 µM [5]: 55%
remaining activity at 1 µM [6]: 97%
remaining activity at 1 µM [7]: 95%
remaining activity at 1 µM [8]: 100%

Fc1cnc(Nc2ccc(N3CCOCC3)nc2)nc1-c1cnc2ccccn12 [Compound 15, 5-Fluoro-4-(imidazo[1,2-a]pyridin-3-yl)-N-(6-morpholinopyridin-3-yl)pyrimidin-2-amine]
GI50 [1]: 20 nM
Ki [2]: 234 nM
Ki [3]: 15 nM
Ki [4]: 1000 nM
Ki [5]: 3 nM
Ki [6]: 10 nM
Ki [7]: 543 nM
Ki [8]: 1630 nM

c1ccc(-c2ccc3ncc(-c4ccnc(Nc5ccc(N6CCC6)nc5)n4)n3c2)cc1 [Compound 25, N-(6-(Azetidin-1-yl)pyridin-3-yl)-4-(6-phenylimidazo[1,2-a]pyridin-3-yl)pyrimidin-2-amine]
GI50 [1]: 740 nM
Ki [2]: 96 nM
Ki [3]: 5 nM
remaining activity at 1 µM [4]: 44%
Ki [5]: 1080 nM
remaining activity at 1 µM [6]: 100%
remaining activity at 1 µM [7]: 94%
Ki [8]: 297 nM

CN1CCN(c2ccc(Nc3nccc(-c4cnc5ccc(-c6cccnc6)cn45)n3)cn2)CC1 [Compound 7, N-(6-(4-Methylpiperazin-1-yl)pyridin-3-yl)-4-(6-(pyridin-3-yl)imidazo[1,2-a]pyridin-3-yl)pyrimidin-2-amine]
GI50 [1]: 29 nM
Ki [2]: 0.4 nM
inhibition of CDK9 (in words) [2]: dramatically and surprisingly increased the potency of inhibition of CDK9
Ki [3]: 4 nM
Ki [4]: 2160 nM
Ki [5]: 825 nM
Ki [6]: 1100 nM
Ki [7]: > 500 nM
Ki [8]: 2730 nM

CCN1CCN(Cc2ccc(Nc3nccc(-c4cnc5ccc(-c6ccccc6)cn45)n3)cn2)CC1 [Compound 80, N-(6-((4-Ethylpiperazin-1-yl)methyl)pyridin-3-yl)-4-(6-phenylimidazo[1,2-a]pyridin-3-yl)pyrimidin-2-amine]
GI50 [1]: 102 nM
Ki [2]: 60 nM
Ki [3]: 60 nM
remaining activity at 1 µM [4]: 59%
remaining activity at 1 µM [5]: 37%
remaining activity at 1 µM [6]: 92%
remaining activity at 1 µM [7]: 81%
Ki [8]: 222 nM

CCS(=O)(=O)N1CCN(c2ccc(Nc3nccc(-c4cnc5ccc(Br)cn45)n3)cn2)CC1 [Compound 59, 4-(6-Bromoimidazo[1,2-a]pyridin-3-yl)-N-(6-(4-(ethylsulfonyl)piperazin-1-yl)pyridin-3-yl)pyrimidin-2-amine]
GI50 [1]: 32 nM
Ki [2]: 234 nM
Ki [3]: 86 nM
remaining activity at 1 µM [4]: 49%
remaining activity at 1 µM [5]: 44%
remaining activity at 1 µM [6]: 70%
remaining activity at 1 µM [7]: 52%
remaining activity at 1 µM [8]: 88%

CC(C)N1CCN(c2ccc(Nc3nccc(-c4cnc5ccc(Cl)cn45)n3)cn2)CC1 [Compound 37, 4-(6-Chloroimidazo[1,2-a]pyridin-3-yl)-N-(6-(4-isopropylpiperazin-1-yl)pyridin-3-yl)pyrimidin-2-amine]
GI50 [1]: 24 nM
Ki [2]: 14 nM
Ki [3]: 26 nM
Ki [4]: 215 nM
Ki [5]: 72 nM
Ki [6]: 151 nM
Ki [7]: 154 nM
Ki [8]: 174 nM

CN1CCN(Cc2ccc(Nc3nccc(-c4cnc5ccc(-c6ccccc6)cn45)n3)cn2)CC1 [Compound 78, N-(6-((4-Methylpiperazin-1-yl)methyl)pyridin-3-yl)-4-(6-phenylimidazo[1,2-a]pyridin-3-yl)pyrimidin-2-amine]
GI50 [1]: 105 nM
Ki [2]: 65 nM
Ki [3]: 90 nM
remaining activity at 1 µM [4]: 64%
remaining activity at 1 µM [5]: 46%
remaining activity at 1 µM [6]: 99%
remaining activity at 1 µM [7]: 95%
remaining activity at 1 µM [8]: 38%
